In patent US12522614B2, “Topical phosphoinositide 3-kinase inhibitors” (VENTHERA, INC., priority 2019, dated 2026):

Tests used:
[1] = Viscosity of topical formulation as prepared; type: physicochemical; settings: gel formulation of Example 8 (Table 2)
Description: The liquid excipients, i.e. DMSO, oleic acid, Transcutol® P, and dipropylene glycol were mixed in a 20-mL vial, by vortex agitation. The active ingredient, a compound of formula (I), for example Compound 1.002 was then added, and the vial content was sonicated for 10 minutes to dissolve the compound. […] Hydroxylpropyl cellulose (HPC) was added, and the vial was agitated by vortex for another ten minutes to obtain the gel formulation. The viscosity of the clear gel was measured to be in a range of about 7,000 to 10,000 centipoise (cp).
A solution formulation was prepared, similar to the gel formulations as described in Example 8, without a thickening agent. The viscosity of the solution was 13.4 cp and it can be used as a topical spray or lotion.

[2] = Accelerated stability study of topical gel formulations at 80° C.; type: physicochemical; settings: gel formulation (Table 2 excipients), 80° C.
Description: Topical gel formulations were prepared using excipients as shown in Table 2 according to Example 8, in which Compounds 1.002, 1.012, and 1.006 were used as the active ingredient, respectively. These gel formulations were subjected to stability study at 80° C. for 10 days. Stability under the condition of at 80° C. for 10 days is expected to be approximately equivalent to the stability for three (3) years at room temperature. A relative purity of the tested compound after being exposed for 5 days and 10 days at 80° C. was determined by HPLC, as compared to its initial purity (at day 0).
The values shown in the table are percent hydrolysis of the respective compounds to the parent compound MTPP.
Topical gel formulations of Compound 1.002 were prepared using excipients as shown in Table 2 according to Example 8, in which the content of oleic acid varied at 1%, 2%, 5%, and 10%, respectively. These gel formulations were subjected to stability study at 80° C. for 10 days, which is expected to be approximately equivalent to the stability for three (3) years at room temperature. A purity of the tested compound on day 0, 5, 7, and 10 at 80° C. was determined by HPLC. The detected impurity of the tested compound appears to be the hydrolysis product, as MTPP. Table 17 represents stability data of Compound 1.002 in topical formulations having oleic acid at various contents.
Gel formulations of Example 17 were subjected to stability study at 80° C. for 10 days. Stability under the condition of at 80° C. for 10 days is expected to be approximately equivalent to the stability for three (3) years at room temperature. A relative purity of Compound 1.002 after being exposed for 5 days and 10 days at 80° C. was determined by HPLC, as compared to its initial purity (at day 0).

## CC(=O)Oc1cccc(-c2nc(N3CCOCC3)c3sccc3n2)c1 [Compound 1.002, 3-(4-Morpholinothieno[3,2-d]pyrimidin-2-yl)phenyl Acetate]
[1]
  Viscosity of the clear gel: 7,000 to 10,000 centipoise (cp)
[2]; Day 0
  Relative Purity: 100%
[2]; Day 5
  Relative Purity: 96%
[2]; Day 10
  Relative Purity: 94%
